The test system of data set [1] is vaccinia virus. The conditions noted are these: cited from earlier work.
Data set [2] has as its system cowpox virus. The conditions noted are these: cited from earlier work.
Data set [3] relates to cowpox virus (strain Grishak), CPXV. Kind of data set: microbe, parasite or virus in culture. Conditions: Vero, read-out: IC50 CPXV.
Data set [4] deals with vaccinia virus (strain Copenhagen). The data set can be described thus: microbe, parasite or virus in culture. Type of data set: cell-based.
For data set [5], the system named is mousepox virus—ectromelia (strain K-1), ECTV. Kind of data set: microbe, parasite or virus in culture. Conditions: Vero, read-out: IC50 ECTV.
In data set [6] the test system is cowpox virus (strain Grishak), CPXV.
For data set [7], the system named is Vero cell culture. The conditions noted are these: African green monkey.
Data set [8] has as its system mousepox virus—ectromelia (strain K-1), ECTV.
The conditions of data set [9]: in vivo; cited from earlier work.
The conditions of data set [10]: in vivo; cited from earlier work. This is another data set of the same source.
Data set [11] concerns VARV. Conditions: monkey, in vivo; cited from earlier work.
Data set [12] deals with orthopoxviruses. Conditions: cited from earlier work.
Data set [13] has as its system ectromelia virus. The conditions noted are these: mouse, in vivo; cited from earlier work.
The mark [14] stands for this setting: Orthopoxvirus vaccinia, Vero, read-out: IC50, 50% virus-inhibiting concentration.
Where [15] appears, read: Orthopoxvirus vaccinia, Vero, read-out: pIC50 (converted).

Like-named read-outs stand apart in the source and are kept apart here. Bounds are passed on as bounds.

Consider `CC(=O)N(OCCN(C)C)C12CC3CC(CC(C3)C1)C2` [compound 3], for which the “vaccinia virus inhibitory effects” value in data set [1] is on record as “pronounced”.

In the case of `O=C1C2C3C=CC(C4CC34)C2C(=O)N1NC(=O)C12CC3CC(CC(C3)C1)C2` (stereo not shown) [compound 6], in data set [1], the “effective concentration against vaccinia virus” value is listed as “below 0.05 μM”. Also, in [2], the “effective concentration against cowpox virus” value is “below 0.05 μM”.

Regarding `O=C(NC12CC3CC(CC(C3)C1)C2)c1ccc(Br)cc1` [15a], the IC50 in data set [3] was 400 ± 240 nM; in data set [4] (setting [14]), 130 ± 80 nM; in data set [4] (setting [15]), 129 nM; in [5], 150 ± 80 nM. For the same molecule, the “SI, selectivity index (TC50/IC50)” value in data set [4] was found to be 3192. The “SI CPXV (TC50/IC50)” value in [6] is 1038. Also, in [7], the “TC50, 50% cytotoxic concentration” value came out at 415000 ± 95000 nM. For the same molecule, the “SI ECTV (TC50/IC50)” value in [8] worked out at 2767.

`O=C(NC12CC3CC(CC(C3)C1)C2)c1ccc(F)cc1` [13a]: the IC50 was 2780 ± 420 nM in data set [3], 410 ± 100 nM in [4] (setting [14]), 407 nM in [4] (setting [15]) and 1390 ± 290 nM in [5]. Further, the “SI, selectivity index (TC50/IC50)” value in [4] amounted to 847. Further, the “SI CPXV (TC50/IC50)” value in [6] is 125. Besides, the “TC50, 50% cytotoxic concentration” value in data set [7] is 347310 ± 38980 nM. Also, the “SI ECTV (TC50/IC50)” value in data set [8] is recorded as 250.

For the molecule `O=C(NC1C2CC3CC(C2)CC1C3)c1ccc([N+](=O)[O-])cc1` (stereo not shown) [18b, N-(adamantan-2-yl)-4-nitrobenzamide], the IC50 is 1100 ± 220 nM in [3], 40 ± 10 nM in [4] (setting [14]), 39.8 nM in data set [4] (setting [15]) and 450 ± 220 nM in data set [5]. Further, the “SI, selectivity index (TC50/IC50)” value in data set [4] is given as 12,300. Besides, the “SI CPXV (TC50/IC50)” value in [6] was found to be 447. Moreover, the “TC50, 50% cytotoxic concentration” value in [7] is 492000 ± 31000 nM. In addition, in data set [8], the “SI ECTV (TC50/IC50)” value is reported as 1093.

Consider `Nc1ccn(C[C@@H](CO)OCP(=O)(O)O)c(=O)n1` [cidofovir, Cidofovir, reference compound], for which the oral bioavailability entry in data set [9] was “Low”. Moreover, the “selectivity index (SI), vaccinia virus” value in [1] is on record as 12. The IC50 came to 23500 ± 2230 nM in [3], 7630 ± 3150 nM in [4] (setting [14]) and 6460 ± 3100 nM in [5]. Moreover, the nephrotoxicity entry in data set [10] is on record as “significant”. Besides, the “efficacy when used after the onset of smallpox lesions” value in [11] was “ineffective”. Also, in data set [4], the “SI, selectivity index (TC50/IC50)” value came to 26. Besides, the “SI CPXV (TC50/IC50)” value in data set [6] is recorded as 9. Further, the “TC50, 50% cytotoxic concentration” value in data set [7] is 201330 ± 60100 nM. For the same molecule, in data set [8], the “SI ECTV (TC50/IC50)” value is listed as 31.

For `O=C(NC1C2CC3CC(C2)CC1C3)c1cccc([N+](=O)[O-])c1` (stereo not shown) [17b, N-(adamantan-2-yl)-3-nitrobenzamide], in data set [4], the “SI, selectivity index (TC50/IC50)” value is 10. In addition, the results for the IC50 in data set [4] (setting [14]) and in data set [4] (setting [15]) were 990 ± 190 nM and 1000 nM, respectively. For the same molecule, the “TC50, 50% cytotoxic concentration” value in [7] came out at 9500 ± 870 nM.

Regarding `O=C(NC12CC3CC(CC(C3)C1)C2)c1ccc(C(F)(F)F)cc1` [compound 10], the selectivity index in [12] is recorded as 2325.

Consider `O=C(NC12CC3CC(CC(C3)C1)C2)c1ccc([N+](=O)[O-])cc1` [18a], for which the IC50 in data set [3] was 180 ± 20 nM; in [4] (setting [14]), 30 ± 10 nM; in data set [4] (setting [15]) it was 30.2 nM; in [5], 90 ± 17 nM. Further, the “SI, selectivity index (TC50/IC50)” value in data set [4] was 18,214. Moreover, the “SI CPXV (TC50/IC50)” value in data set [6] was 3036. Further, the “TC50, 50% cytotoxic concentration” value in [7] turned out to be 546430 ± 23980 nM. For the same molecule, in [8], the “SI ECTV (TC50/IC50)” value worked out at 6071.

Turning to `O=C(NN1C(=O)C2C3C=CC(C4CC34)C2C1=O)c1ccc(F)cc1` (stereo not shown) [compound 19], the IC50 in data set [1] (read-out: IC50 against vaccinia virus) was less than 50 nM.

`O=C(NC1C2CC3CC(C2)CC1C3)c1ccc(Cl)cc1` (stereo not shown) [14b]: in data set [4], the “SI, selectivity index (TC50/IC50)” value came out at 578. Further, the IC50 in data set [4] (setting [14]) was 180 ± 40 nM; in data set [4] (setting [15]), 182 nM. Besides, in data set [7], the “TC50, 50% cytotoxic concentration” value is 104000 ± 8720 nM.

In the case of `O=C(NC1C2CC3CC(C2)CC1C3)c1ccc(F)cc1` (stereo not shown) [13b], in [4], the “SI, selectivity index (TC50/IC50)” value is reported as 49. Besides, the IC50 was 2140 ± 130 nM in data set [4] (setting [14]) and 2140 nM in data set [4] (setting [15]). Further, in data set [7], the “TC50, 50% cytotoxic concentration” value was found to be 104000 ± 8720 nM.

In the case of `CN(C)CCOCC(=O)NC12CC3CC(CC(C3)C1)C2` [compound 4, tromantadine], the “vaccinia virus inhibitory effects” value in data set [1] was “pronounced”.

For `O=C(NC12CC3CC(CC(C3)C1)C2)c1ccc(Cl)cc1` [14a], the IC50 in data set [3] was 530 ± 370 nM; in data set [4] (setting [14]) it was 130 ± 80 nM; in data set [4] (setting [15]) it was 135 nM; in [5] it was 370 ± 330 nM. Further, the “SI, selectivity index (TC50/IC50)” value in data set [4] came out at 2662. For the same molecule, the “SI CPXV (TC50/IC50)” value in data set [6] is 653. The “TC50, 50% cytotoxic concentration” value in data set [7] was 346000 ± 66000 nM. Besides, the “SI ECTV (TC50/IC50)” value in [8] is recorded as 935.

Consider `CC1(C)C2CCC1(C)C(NC(=O)c1ccc([N+](=O)[O-])cc1)C2` (stereo not shown) [compound 11], for which the selectivity index in data set [12] is given as 31,500.

For `CCCCCCCCCCCCCCCCOCCCOP(=O)(O)CO[C@H](CO)Cn1ccc(N)nc1=O` [CMX001, Brincidofovir], in data set [13], the “protection against lethal infection with ectromelia virus” value is reported as “does not provide a sufficient level of protection”.

Consider `O=C(NC12CC3CC(CC(C3)C1)C2)c1ccccc1[N+](=O)[O-]` [16a, N-(adamantan-1-yl)-2-nitrobenzamide], for which the “TC50, 50% cytotoxic concentration” value in data set [7] is greater than 100000 nM.

For `O=C(NC12CC3CC(CC(C3)C1)C2)c1ccccc1` [12a], in data set [4], the “SI, selectivity index (TC50/IC50)” value was 23. The IC50 is 4700 ± 370 nM in [4] (setting [14]) and 4680 nM in data set [4] (setting [15]). For the same molecule, in [7], the “TC50, 50% cytotoxic concentration” value was found to be 105670 ± 19140 nM.

As to `O=C(CNC1CCCCC1)NC12CC3CC(CC(C3)C1)C2` [compound 2], in data set [1], the “vaccinia virus inhibitory effects” value is “pronounced”.

As for `O=C(NC12CC3CC(CC(C3)C1)C2)c1cccc([N+](=O)[O-])c1` [17a, N-(adamantan-1-yl)-3-nitrobenzamide], in data set [4], the “SI, selectivity index (TC50/IC50)” value came to 8. The values for the IC50 in data set [4] (setting [14]) and in [4] (setting [15]) were 950 ± 30 nM and 955 nM, respectively. Besides, in data set [7], the “TC50, 50% cytotoxic concentration” value came out at 7750 ± 750 nM.

With `O=C(NC1C2CC3CC(C2)CC1C3)c1ccccc1` (stereo not shown) [12b], in data set [4], the “SI, selectivity index (TC50/IC50)” value turned out to be 15. Also, the IC50 is 6730 ± 170 nM in data set [4] (setting [14]) and 6760 nM in data set [4] (setting [15]). Besides, the “TC50, 50% cytotoxic concentration” value in data set [7] amounted to 101330 ± 6110 nM.

With `O=C(NC1C2CC3CC(C2)CC1C3)c1ccc(Br)cc1` (stereo not shown) [15b], the IC50 in data set [1] (read-out: IC50) was 3060 nM; in data set [4] (setting [14]) it was 220 ± 70 nM; in data set [4] (setting [15]), 219 nM. Further, in data set [4], the “SI, selectivity index (TC50/IC50)” value was 589.

Consider `O=C(NC1C2CC3CC(C2)CC1C3)c1ccccc1[N+](=O)[O-]` (stereo not shown) [16b, N-(adamantan-2-yl)-2-nitrobenzamide], for which, in [7], the “TC50, 50% cytotoxic concentration” value was greater than 100000 nM.

`Brc1ccc(NC2C3CC4CC(C3)CC2C4)cc1` (stereo not shown) [bromantane, reference compound]: the “SI, selectivity index (TC50/IC50)” value in data set [4] is 2. The IC50 in data set [4] (setting [14]) is 38800 nM; in [4] (setting [15]), 87100 nM; in [4] (read-out: IC50, 50% virus-inhibiting concentration) it was 38900 ± 490 nM.

`CC1(C)[C@H]2CC=C(CNC(=O)C34CC5CC(CC(C5)C3)C4)[C@@H]1C2` [compound 7]: the “selectivity index (SI), vaccinia virus” value in data set [1] is recorded as 1123. Moreover, in data set [2], the “selectivity index (SI), cowpox virus” value is 406.

Take `O=C(N/N=C1/C(=O)Nc2ccccc21)NC1C2CC3CC(C2)CC1C3` (stereo not shown) [compound 1]: the “reduction in vaccinia virus reproduction” value in data set [1] was 42%.

(Values after paper PMC9865139 (Viruses, 2022).)
